In ChEMBL document CHEMBL5465560, “Selectivity Literature for EUbOPEN Chemogenomic Library” (2024):

Key:
[1] = molecular target: Ribosomal protein S6 kinase alpha-2 (Homo sapiens) (UniProt Q15349); test: Selectivity interaction (Ambit KINOMEscan and KiNATiv profiling in Jurkat cells) EUB0000090b RPS6KA2; format: cell-based; conditions: at 1 µM
[2] = molecular target: T1, Rhodopsin kinase GRK7 (Homo sapiens) (UniProt Q8WTQ7); test: Selectivity interaction (KinomeScan (DiscoverX)) EUB0001619a GRK7; conditions: at 1 µM
T1 sequence (whole entry): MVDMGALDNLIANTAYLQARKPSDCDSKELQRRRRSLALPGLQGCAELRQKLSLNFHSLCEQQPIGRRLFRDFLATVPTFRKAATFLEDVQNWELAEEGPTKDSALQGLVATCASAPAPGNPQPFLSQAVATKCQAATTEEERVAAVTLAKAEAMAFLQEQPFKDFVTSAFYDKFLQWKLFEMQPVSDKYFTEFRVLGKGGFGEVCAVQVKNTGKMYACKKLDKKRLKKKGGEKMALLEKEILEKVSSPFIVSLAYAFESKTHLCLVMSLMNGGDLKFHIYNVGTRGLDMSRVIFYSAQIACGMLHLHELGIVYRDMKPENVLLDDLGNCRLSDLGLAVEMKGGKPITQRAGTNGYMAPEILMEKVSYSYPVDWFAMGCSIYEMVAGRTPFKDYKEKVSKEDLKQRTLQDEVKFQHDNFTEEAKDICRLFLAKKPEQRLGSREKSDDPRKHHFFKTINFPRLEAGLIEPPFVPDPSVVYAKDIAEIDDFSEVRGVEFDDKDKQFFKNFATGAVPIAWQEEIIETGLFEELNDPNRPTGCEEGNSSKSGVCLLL

[3] = molecular target: T2, Serine/threonine-protein kinase tousled-like 1 (Homo sapiens) (UniProt Q9UKI8); test: Selectivity interaction (KinomeScan (DiscoverX)) EUB0001619a TLK1; conditions: at 1 µM
T2 sequence (whole entry): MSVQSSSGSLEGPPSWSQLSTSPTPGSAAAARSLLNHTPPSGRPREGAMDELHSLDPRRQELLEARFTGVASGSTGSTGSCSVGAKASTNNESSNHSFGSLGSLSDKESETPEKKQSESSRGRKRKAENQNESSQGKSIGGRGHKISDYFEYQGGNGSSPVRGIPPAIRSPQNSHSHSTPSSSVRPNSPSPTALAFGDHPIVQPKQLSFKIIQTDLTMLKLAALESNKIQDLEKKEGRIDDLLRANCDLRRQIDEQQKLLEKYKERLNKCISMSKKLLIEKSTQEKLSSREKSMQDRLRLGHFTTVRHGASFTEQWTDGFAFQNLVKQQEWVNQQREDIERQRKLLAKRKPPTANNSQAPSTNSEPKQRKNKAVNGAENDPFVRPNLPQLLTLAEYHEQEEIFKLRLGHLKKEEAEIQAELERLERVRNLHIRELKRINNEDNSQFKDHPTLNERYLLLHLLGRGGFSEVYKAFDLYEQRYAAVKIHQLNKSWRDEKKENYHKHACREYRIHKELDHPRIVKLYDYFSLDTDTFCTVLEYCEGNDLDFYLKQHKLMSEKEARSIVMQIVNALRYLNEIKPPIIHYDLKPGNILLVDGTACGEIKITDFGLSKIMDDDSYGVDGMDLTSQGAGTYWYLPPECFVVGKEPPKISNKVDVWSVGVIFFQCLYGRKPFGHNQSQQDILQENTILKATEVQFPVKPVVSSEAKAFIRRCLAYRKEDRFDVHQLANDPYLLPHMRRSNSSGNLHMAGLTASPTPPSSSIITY

[4] = Selectivity interaction (Kinase panel (KiNativ target engagement assay in Jurkat cells)) EUB0001635a STLK6; conditions: Selectivity number of off-targets 0; Selectivity number of targets 233; Source Knowledge https://www.sciencedirect.com/science/article/pii/S2451945619300674?via%3Dihub; at 1 µM
[5] = molecular target: Cyclin-dependent kinase-like 3 (Homo sapiens) (UniProt Q8IVW4); conditions: at 10 µM
Chain of Cyclin-dependent kinase-like 3 (Homo sapiens) (Q8IVW4 whole entry, looked up): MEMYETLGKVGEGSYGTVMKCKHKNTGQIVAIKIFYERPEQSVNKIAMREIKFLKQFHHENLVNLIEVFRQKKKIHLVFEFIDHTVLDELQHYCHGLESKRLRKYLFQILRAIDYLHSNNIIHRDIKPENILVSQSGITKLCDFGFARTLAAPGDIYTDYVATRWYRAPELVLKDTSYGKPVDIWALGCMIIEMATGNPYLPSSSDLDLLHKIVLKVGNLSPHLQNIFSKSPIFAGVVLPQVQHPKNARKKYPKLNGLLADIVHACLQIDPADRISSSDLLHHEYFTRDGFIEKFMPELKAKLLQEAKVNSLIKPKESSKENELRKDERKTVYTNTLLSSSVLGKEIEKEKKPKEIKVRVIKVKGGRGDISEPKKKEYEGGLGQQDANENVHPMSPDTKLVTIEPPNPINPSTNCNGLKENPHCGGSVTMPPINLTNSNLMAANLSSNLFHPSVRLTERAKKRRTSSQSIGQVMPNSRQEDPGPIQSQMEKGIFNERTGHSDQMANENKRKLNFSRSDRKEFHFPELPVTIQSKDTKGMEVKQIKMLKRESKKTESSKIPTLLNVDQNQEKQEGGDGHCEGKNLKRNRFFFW

[6] = molecular target: Homeodomain-interacting protein kinase 3 (Homo sapiens, UniProt Q9H422); conditions: at 10 µM
Chain of Homeodomain-interacting protein kinase 3 (Q9H422 whole entry, looked up, the tested form may be a part): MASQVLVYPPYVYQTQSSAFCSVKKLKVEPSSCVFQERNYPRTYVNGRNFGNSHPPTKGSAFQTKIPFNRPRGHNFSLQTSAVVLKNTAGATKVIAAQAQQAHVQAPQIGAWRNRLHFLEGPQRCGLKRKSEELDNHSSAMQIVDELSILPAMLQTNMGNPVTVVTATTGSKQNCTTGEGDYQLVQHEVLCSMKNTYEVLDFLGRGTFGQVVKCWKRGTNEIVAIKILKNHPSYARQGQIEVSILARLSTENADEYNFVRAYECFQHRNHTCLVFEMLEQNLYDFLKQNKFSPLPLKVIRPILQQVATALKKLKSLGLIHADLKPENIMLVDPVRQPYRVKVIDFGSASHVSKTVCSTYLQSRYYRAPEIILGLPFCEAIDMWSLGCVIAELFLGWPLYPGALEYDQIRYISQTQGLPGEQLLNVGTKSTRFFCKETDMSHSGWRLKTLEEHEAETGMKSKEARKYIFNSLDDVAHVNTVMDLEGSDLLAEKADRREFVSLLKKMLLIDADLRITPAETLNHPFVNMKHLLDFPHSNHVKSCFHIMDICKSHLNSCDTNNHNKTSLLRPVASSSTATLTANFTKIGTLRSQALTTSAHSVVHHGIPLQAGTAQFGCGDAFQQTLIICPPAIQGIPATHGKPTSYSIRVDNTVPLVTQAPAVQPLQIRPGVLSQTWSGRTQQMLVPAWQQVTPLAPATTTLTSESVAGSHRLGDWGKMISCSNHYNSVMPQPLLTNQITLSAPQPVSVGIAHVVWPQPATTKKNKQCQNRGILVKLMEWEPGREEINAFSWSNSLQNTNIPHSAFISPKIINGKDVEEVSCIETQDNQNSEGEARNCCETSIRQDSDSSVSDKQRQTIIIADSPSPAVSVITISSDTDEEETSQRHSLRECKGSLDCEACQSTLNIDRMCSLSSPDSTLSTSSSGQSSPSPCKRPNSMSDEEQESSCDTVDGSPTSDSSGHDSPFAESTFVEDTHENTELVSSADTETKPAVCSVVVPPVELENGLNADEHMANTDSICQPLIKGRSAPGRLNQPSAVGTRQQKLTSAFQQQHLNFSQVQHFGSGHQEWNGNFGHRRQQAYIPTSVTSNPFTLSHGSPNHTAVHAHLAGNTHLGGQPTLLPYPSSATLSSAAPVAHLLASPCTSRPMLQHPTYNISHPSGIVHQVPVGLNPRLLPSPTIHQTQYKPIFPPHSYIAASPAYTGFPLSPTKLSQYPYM

[7] = molecular target: LIM domain kinase 2 (Homo sapiens) (UniProt P53671); test: Selectivity interaction (Kinase panel (Invitrogen)) EUB0000639a LIMK2; conditions: at 200 nM
Chain of LIM domain kinase 2 (Homo sapiens) (P53671 whole entry, looked up, the tested form may be a part): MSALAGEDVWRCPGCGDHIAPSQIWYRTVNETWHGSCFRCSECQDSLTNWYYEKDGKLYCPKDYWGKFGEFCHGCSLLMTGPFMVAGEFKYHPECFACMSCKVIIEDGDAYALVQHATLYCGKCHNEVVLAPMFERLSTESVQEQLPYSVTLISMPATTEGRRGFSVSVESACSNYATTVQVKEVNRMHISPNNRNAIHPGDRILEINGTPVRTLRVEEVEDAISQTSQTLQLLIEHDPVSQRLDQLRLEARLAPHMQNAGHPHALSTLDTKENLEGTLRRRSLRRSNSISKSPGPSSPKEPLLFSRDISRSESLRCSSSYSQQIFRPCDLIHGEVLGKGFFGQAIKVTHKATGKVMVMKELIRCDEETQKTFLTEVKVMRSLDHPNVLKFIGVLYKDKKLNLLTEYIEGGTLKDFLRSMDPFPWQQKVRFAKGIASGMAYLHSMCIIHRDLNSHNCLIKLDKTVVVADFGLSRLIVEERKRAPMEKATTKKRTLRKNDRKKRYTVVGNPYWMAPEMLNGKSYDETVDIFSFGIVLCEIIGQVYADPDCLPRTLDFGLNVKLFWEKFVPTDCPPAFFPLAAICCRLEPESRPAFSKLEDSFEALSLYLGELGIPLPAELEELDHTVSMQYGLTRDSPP

[8] = molecular target: Ribosomal protein S6 kinase alpha-3 (Homo sapiens, UniProt P51812); test: Selectivity interaction (ActivX KiNativ screen (kinase selectivity in THP-1 cell lysates)) EUB0000639a RPS6KA3; format: subcellular; conditions: lysate
Chain of Ribosomal protein S6 kinase alpha-3 (P51812 whole entry): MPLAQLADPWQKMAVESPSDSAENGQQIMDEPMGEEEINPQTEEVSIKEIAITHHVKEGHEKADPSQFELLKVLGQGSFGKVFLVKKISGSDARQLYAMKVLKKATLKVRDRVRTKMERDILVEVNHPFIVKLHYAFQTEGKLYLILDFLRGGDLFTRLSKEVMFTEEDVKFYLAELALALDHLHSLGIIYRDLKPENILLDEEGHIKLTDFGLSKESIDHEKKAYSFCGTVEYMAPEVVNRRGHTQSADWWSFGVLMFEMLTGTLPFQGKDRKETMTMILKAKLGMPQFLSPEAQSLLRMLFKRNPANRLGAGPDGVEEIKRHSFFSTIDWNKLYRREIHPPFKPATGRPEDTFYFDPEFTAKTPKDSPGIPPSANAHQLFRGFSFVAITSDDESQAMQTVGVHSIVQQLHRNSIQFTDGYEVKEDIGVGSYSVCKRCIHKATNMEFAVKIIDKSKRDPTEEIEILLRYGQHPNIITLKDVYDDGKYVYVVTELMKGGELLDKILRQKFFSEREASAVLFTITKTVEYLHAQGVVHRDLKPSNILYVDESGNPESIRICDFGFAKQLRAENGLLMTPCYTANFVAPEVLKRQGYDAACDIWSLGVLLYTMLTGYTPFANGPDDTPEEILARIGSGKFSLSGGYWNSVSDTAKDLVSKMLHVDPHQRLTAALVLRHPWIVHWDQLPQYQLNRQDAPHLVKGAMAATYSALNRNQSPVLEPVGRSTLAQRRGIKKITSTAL

[9] = molecular target: MAP/microtubule affinity-regulating kinase 3 (Homo sapiens) (UniProt P27448); test: Selectivity interaction (KinomeScan (DiscoverX)) EUB0000229b MARK3; conditions: at 10 µM
Chain of MAP/microtubule affinity-regulating kinase 3 (Homo sapiens) (P27448 whole entry, looked up): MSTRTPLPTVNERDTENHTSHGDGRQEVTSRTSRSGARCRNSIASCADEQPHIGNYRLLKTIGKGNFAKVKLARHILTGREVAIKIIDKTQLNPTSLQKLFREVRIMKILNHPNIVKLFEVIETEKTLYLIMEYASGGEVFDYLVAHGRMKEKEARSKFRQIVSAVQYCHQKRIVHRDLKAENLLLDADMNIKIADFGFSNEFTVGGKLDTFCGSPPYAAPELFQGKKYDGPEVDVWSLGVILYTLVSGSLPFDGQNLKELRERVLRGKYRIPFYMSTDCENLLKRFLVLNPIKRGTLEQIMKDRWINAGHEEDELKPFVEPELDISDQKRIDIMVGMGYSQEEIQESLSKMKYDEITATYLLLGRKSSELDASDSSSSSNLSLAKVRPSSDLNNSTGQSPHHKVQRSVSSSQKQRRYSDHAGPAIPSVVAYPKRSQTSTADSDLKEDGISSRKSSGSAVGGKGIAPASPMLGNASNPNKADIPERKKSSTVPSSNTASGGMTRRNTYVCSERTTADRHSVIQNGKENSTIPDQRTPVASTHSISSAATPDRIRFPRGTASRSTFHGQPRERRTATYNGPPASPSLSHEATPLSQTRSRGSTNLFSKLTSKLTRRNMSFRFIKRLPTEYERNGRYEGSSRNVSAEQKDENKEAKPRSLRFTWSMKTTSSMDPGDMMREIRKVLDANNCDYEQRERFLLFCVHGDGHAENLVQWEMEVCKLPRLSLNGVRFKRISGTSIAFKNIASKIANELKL

[10] = molecular target: Serine/threonine-protein kinase pim-3 (Homo sapiens) (UniProt Q86V86); test: Selectivity interaction (ProQinase) EUB0000171b PIM3
[11] = molecular target: T3, Interleukin-1 receptor-associated kinase 3 (Homo sapiens) (UniProt Q9Y616); test: Selectivity interaction (KinomeScan (DiscoverX)) EUB0001049a IRAK3; conditions: at 1 µM
T3 sequence (whole entry): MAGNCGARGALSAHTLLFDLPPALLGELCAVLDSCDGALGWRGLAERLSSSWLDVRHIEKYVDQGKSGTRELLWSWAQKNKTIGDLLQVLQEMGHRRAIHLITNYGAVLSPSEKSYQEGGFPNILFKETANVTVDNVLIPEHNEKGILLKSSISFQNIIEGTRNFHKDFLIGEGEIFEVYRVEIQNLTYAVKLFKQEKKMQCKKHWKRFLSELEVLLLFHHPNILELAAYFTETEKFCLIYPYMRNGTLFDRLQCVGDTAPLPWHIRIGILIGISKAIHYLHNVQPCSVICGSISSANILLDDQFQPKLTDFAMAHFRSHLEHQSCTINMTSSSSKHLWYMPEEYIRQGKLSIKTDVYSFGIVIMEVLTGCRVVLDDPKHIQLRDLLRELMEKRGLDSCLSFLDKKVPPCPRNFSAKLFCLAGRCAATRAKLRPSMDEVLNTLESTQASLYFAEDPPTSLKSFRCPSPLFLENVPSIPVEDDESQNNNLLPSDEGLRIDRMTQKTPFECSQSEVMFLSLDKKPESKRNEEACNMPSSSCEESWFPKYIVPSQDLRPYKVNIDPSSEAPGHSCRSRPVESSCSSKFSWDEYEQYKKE

[12] = molecular target: T2, Serine/threonine-protein kinase tousled-like 1 (Homo sapiens); test: Selectivity interaction (KinomeScan (DiscoverX)) EUB0000092b TLK1; conditions: at 10 µM

Chain of Ribosomal protein S6 kinase alpha-2 (Homo sapiens) (Q15349 whole entry): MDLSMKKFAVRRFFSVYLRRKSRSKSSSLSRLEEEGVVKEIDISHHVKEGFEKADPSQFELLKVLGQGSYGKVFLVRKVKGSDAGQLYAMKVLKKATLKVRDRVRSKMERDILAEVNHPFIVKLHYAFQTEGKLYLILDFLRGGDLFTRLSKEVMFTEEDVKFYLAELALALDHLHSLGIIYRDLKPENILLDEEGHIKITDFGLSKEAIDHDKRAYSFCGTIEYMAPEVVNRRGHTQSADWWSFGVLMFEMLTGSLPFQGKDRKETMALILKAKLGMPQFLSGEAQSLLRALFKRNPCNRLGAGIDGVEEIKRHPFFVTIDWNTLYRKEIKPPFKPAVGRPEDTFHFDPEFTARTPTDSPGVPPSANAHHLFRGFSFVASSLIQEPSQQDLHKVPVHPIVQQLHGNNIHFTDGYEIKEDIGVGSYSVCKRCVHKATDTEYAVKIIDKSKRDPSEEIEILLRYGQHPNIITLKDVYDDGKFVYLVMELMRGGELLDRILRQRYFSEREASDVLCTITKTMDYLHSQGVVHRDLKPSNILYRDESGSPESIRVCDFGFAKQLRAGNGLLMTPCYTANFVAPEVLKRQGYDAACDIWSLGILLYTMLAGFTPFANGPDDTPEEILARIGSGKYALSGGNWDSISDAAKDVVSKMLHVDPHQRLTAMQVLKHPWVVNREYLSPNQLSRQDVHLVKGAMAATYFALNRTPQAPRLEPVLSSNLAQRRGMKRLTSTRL

`CN(C)C/C=C/C(=O)Nc1ccc(C(=O)N2CCCC(Nc3ncc(Cl)c(-c4c[nH]c5ccccc45)n3)C2)cc1` (configuration not stated) gave a % of control [1] of 88%.
`N#Cc1cccc(-c2c[nH]c3ncnc(N4CCOCC4)c23)c1` showed a % of control [2] of 37% and a % of control [3] of 99%.
For `C=CC(=O)Nc1ccc(C(=O)Nc2[nH]nc3c2CN(C(=O)N[C@H](CN(C)C)c2ccccc2)C3(C)C)cc1`, the “% of engagement” value [4] was -9%.
`Cc1cc([C@@H](C)Nc2ccccc2C(=O)O)c2nc(N3CCOCC3)cc(=O)n2c1` [AZD-6482] showed a % of control [5] of 90% and a % of control [6] of 89%.
`CC[C@@H]1[C@H](F)C(=O)N[C@@H]1COc1nccc2cc(C(N)=O)c(OC)cc12` [ZIMLOVISERTIB] gave a % of inhibition [7] of 1.7%, a % of inhibition ([8]; at 0.01 µM) of 16.9% and a % of inhibition ([8]; at 0.04 µM) of 12.4%. It also gave a % of inhibition ([8]; at 0.2 µM) of 10.3%, a % of inhibition ([8]; at 1 µM) of 8.6% and a % of inhibition ([8]; at 5 µM) of 11.7%.
Compound `COc1cc(N(C)c2ccnc3ccc(C(F)(F)F)cc23)cc(OC)c1OC` has a % binding [9] of 100%.
In the case of `C=CC(=O)Nc1cccc(C(=O)Nc2ccc(Nc3cc(-c4[nH]c(SC)nc4C)ccn3)cc2)c1`, the % of control ([10]; at 1 µM) is reported as 93% and the % of control ([10]; at 5 µM) is reported as 82%.
`COc1cc(Nc2nc(C)cc(-c3cnn4nc(OC)ccc34)n2)cc(C(F)(F)F)c1` showed a % of control [11] of 89%.
`CCC(=O)N1CCN(c2ccc(-n3c(=O)ccc4cnc5ccc(-c6cnc7ccccc7c6)cc5c43)cc2C(F)(F)F)CC1` showed a % of control [12] of 100%.
